Source: US20160083357A1, “NOVEL TETRAZOLONE DERIVATIVES” (Hoffmann-La Roche Inc., priority 2013, published 2016)
Where two headings read alike, the source gives them in different places.

Assays:
human CB2 receptors = target: T1, human CB2 receptors (Homo sapiens, UniProt P34972); assay: cAMP assay, human CB2; assay type: cell-based
T1 construct: expressed in transfected cells; host or cells: CHO cells
Method: (§1) CHO cells expressing human CB1 or CB2 receptors are seeded 17-24 hours prior to the experiment 50.000 cells per well in a black 96 well plate with flat clear bottom (Corning Costar #3904) in DMEM (Invitrogen No. 31331), lx HT supplement, with 10% fetal calf serum and incubated at 5% CO2 and 37° C. in a humidified incubator. The growth medium was exchanged with Krebs Ringer Bicarbonate buffer with 1 mM IBMX and incubated at 30° C. for 30 min. Compounds were added to a final assay volume of 100 μl and incubated for 30 min at 30° C. Using the cAMP-Nano-TRF detection kit the assay (Roche Diagnostics) was stopped by the addition of 50 μl lysis reagent (Tris, NaCl, 1.5% Triton X100, 2.5% NP40, 10% NaN3) and 50 μl detection solutions (20 μM mAb Alexa700-cAMP 1:1, and 48 μM Ruthenium-2-AHA-cAMP) and shaken for 2 h at room temperature. The time-resolved energy transfer is measured by a TRF reader (Evotec Technologies GmbH), equipped with a ND:YAG laser as excitation source. The plate is measured twice with the excitation at 355 nm and at the emission with a delay of 100 ns and a gate of 100 ns, total exposure time 10 s at 730 (bandwidth 30 nm) or 645 nm (bandwidth 75 nm), respectively. The FRET signal is calculated as follows: FRET=T730-Alexa730-P(T645-B645) with P=Ru730-B730/Ru645-B645, where T730 is the test well measured at 730 nM, T645 is the test well measured at 645 nm, B730 and B645 are the buffer controls at 730 nm and 645 nm, respectively. cAMP content is determined from the function of a standard curve spanning from 10 μM to 0.13 nM cAMP.
(§2) EC50 values were determined using Activity Base analysis (ID Business Solution, Limited). The EC50 values for a wide range of cannabinoid agonists generated from this assay were in agreement with the values published in the scientific literature.

human CB1 receptors = target: T2, human CB1 receptors (Homo sapiens, UniProt P21554); assay: cAMP assay, human CB1; assay type: cell-based
T2 construct: expressed in transfected cells; host or cells: CHO cells
Method: as §1, §2

[1] = functional cAMP assay, CHO cells expressing human CB2, read-out: Ec50: CB2 - hu cAMP
[2] = functional cAMP assay, CHO cells expressing human CB1, read-out: Ec50: CB1 - hu cAMP

T2 sequence (P21554 whole entry): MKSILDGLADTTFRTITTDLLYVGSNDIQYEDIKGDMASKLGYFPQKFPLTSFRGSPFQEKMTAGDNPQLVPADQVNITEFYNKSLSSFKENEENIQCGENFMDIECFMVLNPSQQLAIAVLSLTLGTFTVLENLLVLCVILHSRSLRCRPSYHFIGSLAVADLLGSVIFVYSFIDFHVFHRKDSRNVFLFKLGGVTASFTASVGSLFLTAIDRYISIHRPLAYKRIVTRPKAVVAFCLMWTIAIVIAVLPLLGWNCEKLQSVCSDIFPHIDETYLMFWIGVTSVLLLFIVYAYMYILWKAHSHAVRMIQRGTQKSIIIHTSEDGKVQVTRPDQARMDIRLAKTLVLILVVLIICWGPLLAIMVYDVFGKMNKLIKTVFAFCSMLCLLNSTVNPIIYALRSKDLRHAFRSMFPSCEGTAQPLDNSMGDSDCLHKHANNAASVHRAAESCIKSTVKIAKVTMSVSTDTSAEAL
T1 sequence (P34972 whole entry): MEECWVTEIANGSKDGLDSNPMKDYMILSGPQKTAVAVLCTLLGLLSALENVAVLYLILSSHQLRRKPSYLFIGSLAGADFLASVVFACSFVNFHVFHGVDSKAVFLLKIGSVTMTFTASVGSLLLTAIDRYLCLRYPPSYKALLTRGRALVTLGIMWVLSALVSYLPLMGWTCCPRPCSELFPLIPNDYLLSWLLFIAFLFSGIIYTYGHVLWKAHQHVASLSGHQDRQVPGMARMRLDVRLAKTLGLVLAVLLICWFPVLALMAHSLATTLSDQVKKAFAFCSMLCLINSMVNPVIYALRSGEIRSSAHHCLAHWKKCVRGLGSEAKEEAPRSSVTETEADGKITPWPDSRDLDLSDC

EC50 (human CB2 receptors; [1]) [nM]	EC50 (human CB1 receptors; [2]) [nM]	SMILES	EC50 (human CB2 receptors) [nM]	EC50 (human CB1 receptors) [nM]
1.5	> 10000	CC1(C)CCN(C(=O)n2nnn(-c3cccc(OC(F)(F)F)c3)c2=O)CC1 [Example 78, 1-(4,4-Dimethyl-piperidine-1-carbonyl)-4-(3-trifluoromethoxy-phenyl)-1,4-dihydro-tetrazol-5-one]		
122	> 10000	CC(C(=O)N1CCCC1)N1CCN(C(=O)n2nnn(-c3cccc(Cl)c3)c2=O)CC1 (centres unmarked) [Example 116, 1-(3-Chloro-phenyl)-4-[4-(1-methyl-2-oxo-2-pyrrolidin-1-yl-ethyl)-piperazine-1-carbonyl]-1,4-dihydro-tetrazol-5-one]		
21.1	> 10000	CN(C)C(=O)CN1CCN(C(=O)n2nnn(-c3ccc(Cl)cc3)c2=O)CC1 [Example 94, 2-{4-[4-(4-Chloro-phenyl)-5-oxo-4,5-dihydro-tetrazole-1-carbonyl]-piperazin-1-yl}-N,N-dimethyl-acetamide]		
		CCOCCN(CC)C(=O)n1nnn(-c2cccc(Cl)c2)c1=O [Example 98, 4-(3-Chloro-phenyl)-5-oxo-4,5-dihydro-tetrazole-1-carboxylic acid (2-ethoxy-ethyl)-ethyl-amide]	1.8	> 10000
968	> 10000	COCCNC(=O)n1nnn(-c2cccc(F)c2)c1=O [Example 110, 4-(3-Fluoro-phenyl)-5-oxo-4,5-dihydro-tetrazole-1-carboxylic acid (2-methoxy-ethyl)-amide]		
1.5	> 10000	CCOCCN(C)C(=O)n1nnn(-c2cccc(Cl)c2)c1=O [Example 111, 4-(3-Chloro-phenyl)-5-oxo-4,5-dihydro-tetrazole-1-carboxylic acid (2-ethoxy-ethyl)-methyl-amide]		
6.7	> 10000	CC1CCCN1C(=O)n1nnn(-c2cccc(F)c2)c1=O (centres unmarked) [Example 48, 1-(3-Fluoro-phenyl)-4-(2-methyl-pyrrolidine-1-carbonyl)-1,4-dihydro-tetrazol-5-one]		
10.8	> 10000	CCN(C(C)=O)C1CCN(C(=O)n2nnn(-c3ccc(Cl)cc3)c2=O)C1 (centres unmarked) [Example 73, N-{1-[4-(4-Chloro-phenyl)-5-oxo-4,5-dihydro-tetrazole-1-carbonyl]-pyrrolidin-3-yl}-N-ethyl-acetamide]		
12.9	> 10000	O=C(CN1CCN(C(=O)n2nnn(-c3ccc(Cl)cc3)c2=O)CC1)N1CCCC1 [Example 97, 1-(4-Chloro-phenyl)-4-[4-(2-oxo-2-pyrrolidin-1-yl-ethyl)-piperazine-1-carbonyl]-1,4-dihydro-tetrazol-5-one]		
4.4	> 10000	O=C(N1CCOCC1)n1nnn(-c2cccc(OC(F)(F)F)c2)c1=O [Example 102, 1-(Morpholine-4-carbonyl)-4-(3-trifluoromethoxy-phenyl)-1,4-dihydro-tetrazol-5-one]		
12	> 10000	O=C(N1CCOCC1)n1nnn(-c2ccc(F)cc2F)c1=O [Example 123, 1-(2,4-difluorophenyl)-4-(morpholine-4-carbonyl)tetrazol-5-one]		
2.9	> 10000	CCCCNC(=O)CN1CCN(C(=O)n2nnn(-c3cccc(Cl)c3)c2=O)CC1 [Example 107, N-Butyl-2-{4-[4-(3-chloro-phenyl)-5-oxo-4,5-dihydro-tetrazole-1-carbonyl]-piperazin-1-yl}-acetamide]		
154	> 10000	N#C[C@@H]1CCCN1C(=O)n1nnn(-c2cccc(F)c2)c1=O [Example 51, (S)-1-[4-(3-Fluoro-phenyl)-5-oxo-4,5-dihydro-tetrazole-1-carbonyl]-pyrrolidine-2-carbonitrile]		
13.8	> 10000	CCN(C(C)=O)C1CCN(C(=O)n2nnn(-c3cccc(F)c3)c2=O)C1 (centres unmarked) [Example 44, N-Ethyl-N-{1-[4-(3-fluoro-phenyl)-5-oxo-4,5-dihydro-tetrazole-1-carbonyl]-pyrrolidin-3-yl}-acetamide]		
20.4	> 10000	CC(=O)N[C@@H]1CCN(C(=O)n2nnn(-c3cccc(OC(F)(F)F)c3)c2=O)C1 [Example 66, N—{(R)-1-[5-Oxo-4-(3-trifluoromethoxy-phenyl)-4,5-dihydro-tetrazole-1-carbonyl]-pyrrolidin-3-yl}-acetamide]		
		CCCN(CCOC)C(=O)n1nnn(-c2cccc(F)c2)c1=O [Example 56, 4-(3-Fluoro-phenyl)-5-oxo-4,5-dihydro-tetrazole-1-carboxylic acid (2-methoxy-ethyl)-propyl-amide]	17	> 10000

EC50 (human CB2 receptors; [1]) [nM]	EC50 (human CB1 receptors; [2]) [nM]	SMILES	EC50 (human CB2 receptors) [nM]	EC50 (human CB1 receptors) [nM]
1.9	> 10000	COCCCN(C)C(=O)n1nnn(-c2ccc(Cl)cc2)c1=O [Example 88, 4-(4-Chloro-phenyl)-5-oxo-4,5-dihydro-tetrazole-1-carboxylic acid (3-methoxy-propyl)-methyl-amide]		
		CCN(Cc1ccccc1)C(=O)n1nnn(-c2ccc(Cl)nc2)c1=O [Example 53, 4-(6-Chloro-pyridin-3-yl)-5-oxo-4,5-dihydro-tetrazole-1-carboxylic acid benzyl-ethyl-amide]	1	> 10000
		O=C(N1CCOCC1)n1nnn(-c2c(F)cccc2F)c1=O [Example 122, 1-(2,6-difluorophenyl)-4-(morpholine-4-carbonyl)tetrazol-5-one]	19	> 10000
7.4	> 10000	Cc1cc(C2CCCN2C(=O)n2nnn(-c3ccc(Cl)cc3)c2=O)on1 (centres unmarked) [Example 76, 1-(4-Chloro-phenyl)-4-[2-(3-methyl-isoxazol-5-yl)-pyrrolidine-1-carbonyl]-1,4-dihydro-tetrazol-5-one]		
4	> 10000	CCN(CCOC)C(=O)n1nnn(-c2cccc(OC(F)(F)F)c2)c1=O [Example 81, 5-Oxo-4-(3-trifluoromethoxy-phenyl)-4,5-dihydro-tetrazole-1-carboxylic acid ethyl-(2-methoxy-ethyl)-amide]		
		CCN(CCOC)C(=O)n1nnn(-c2cccc(Cl)c2)c1=O [Example 80, 4-(3-Chloro-phenyl)-5-oxo-4,5-dihydro-tetrazole-1-carboxylic acid ethyl-(2-methoxy-ethyl)-amide]	2.4	> 10000
129	> 10000	N#C[C@H]1CCCN1C(=O)n1nnn(-c2cccc(F)c2)c1=O [Example 52, (R)-1-[4-(3-Fluoro-phenyl)-5-oxo-4,5-dihydro-tetrazole-1-carbonyl]-pyrrolidine-2-carbonitrile]		
0.8	> 10000	CC1(C)CCN(C(=O)n2nnn(-c3cccc(F)c3)c2=O)CC1 [Example 28, 1-(4,4-Dimethyl-piperidine-1-carbonyl)-4-(3-fluoro-phenyl)-1,4-dihydro-tetrazol-5-one]		
7	> 10000	O=C(N1CCOCC1)n1nnn(-c2cccc(Br)c2)c1=O [Example 135, 1-(3-bromophenyl)-4-(morpholine-4-carbonyl)tetrazol-5-one]		
0.9	> 10000	CC1(C)CCN(C(=O)n2nnn(-c3ccc(Cl)cc3)c2=O)CC1 [Example 79, 1-(4-Chloro-phenyl)-4-(4,4-dimethyl-piperidine-1-carbonyl)-1,4-dihydro-tetrazol-5-one]		
45.4	> 10000	CC1CN(C(=O)n2nnn(-c3cccc(F)c3)c2=O)CC(C)O1 (centres unmarked) [Example 58, 1-(2,6-Dimethyl-morpholine-4-carbonyl)-4-(3-fluoro-phenyl)-1,4-dihydro-tetrazol-5-one]		
4.1	> 10000	COCCN(C(=O)n1nnn(-c2cccc(F)c2)c1=O)C(C)C [Example 55, 4-(3-Fluoro-phenyl)-5-oxo-4,5-dihydro-tetrazole-1-carboxylic acid isopropyl-(2-methoxy-ethyl)-amide]		
19	> 10000	O=C(N1CCOCC1)n1nnn(-c2cc(F)ccc2F)c1=O [Example 124, 1-(2,5-difluorophenyl)-4-(morpholine-4-carbonyl)tetrazol-5-one]		
7.6	> 10000	Cn1ccc2c(-n3nnn(C(=O)N4CCOCC4)c3=O)cccc21 [Example 132, 1-(1-methylindol-4-yl)-4-(morpholine-4-carbonyl)tetrazol-5-one]		
11.2	> 10000	CC[C@H](C)[C@@H](C(=O)OC)N(C)C(=O)n1nnn(-c2cccc(F)c2)c1=O [Example 13, (2S,3S)-2-{[4-(3-Fluoro-phenyl)-5-oxo-4,5-dihydro-tetrazole-1-carbonyl]-methyl-amino}-3-methyl-pentanoic acid methyl ester]		
